Target: T1, Recombinant human cathepsin S (CatS) (Homo sapiens, UniProt P25774)
T1 construct: made in house
Assay: Recombinant human cathepsin S (CatS) fluorogenic substrate inhibition assay
Assay type: biochemical
Conditions: not given
Protocol: Recombinant human cathepsin S (CatS) was expressed in the baculovirus system and purified in one step with a thiopropyl-sepharose column. […] The assay is run in 150 mM sodium acetate pH 5.0 containing 1.5 mM DTT and 150 mM NaCl. […] Measurements are taken every min for 20 min. The rate is calculated from the slope of the increase in fluorescence and the percent inhibition is calculated from this.

T1 sequence (P25774 115-331): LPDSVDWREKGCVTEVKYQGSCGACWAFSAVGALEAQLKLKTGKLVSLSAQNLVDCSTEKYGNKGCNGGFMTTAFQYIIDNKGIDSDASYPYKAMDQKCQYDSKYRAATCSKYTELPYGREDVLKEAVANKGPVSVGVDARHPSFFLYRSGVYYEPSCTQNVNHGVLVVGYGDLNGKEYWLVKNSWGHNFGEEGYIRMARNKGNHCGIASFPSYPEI

Structure (SMILES)	IC50 [nM]
CC(C)CCNCc1cc(-c2nn(CC(O)CN3CCC(NS(C)(=O)=O)CC3)c3c2CN(S(C)(=O)=O)CC3)ccc1C(F)(F)F (stereo not drawn) [Example 283, N-{1-[2-Hydroxy-3-(5-methanesulfonyl-3-3-[(3-methyl-butylamino)-methyl]-4-trifluoromethyl-phenyl-4,5,6,7-tetrahydro-pyrazolo[4,3-c]pyridin-1-yl)-propyl]-piperidin-4-yl}-methanesulfonamide]	800
CS(=O)(=O)N1CCc2c(c(-c3ccc(Cl)c(CNC(=O)c4ccc(F)cc4)c3)nn2CC(O)CN2CCC2)C1 (stereo not drawn) [Example 73, N-{5-[1-(3-Azetidin-1-yl-2-hydroxy-propyl)-5-methanesulfonyl-4,5,6,7-tetrahydro-1H-pyrazolo[4,3-c]pyridin-3-yl]-2-chloro-benzyl}-4-fluoro-benzamide]	200
CS(=O)(=O)N1CCc2c(c(-c3ccc(C(F)(F)F)c(CNC(=O)Oc4ccccc4)c3)nn2CC(O)CN2CCCC2)C1 (stereo not drawn) [Example 116, {5-[1-(2-Hydroxy-3-pyrrolidin-1-yl-propyl)-5-methanesulfonyl-4,5,6,7-tetrahydro-1H-pyrazolo[4,3-c]pyridin-3-yl]-2-trifluoromethyl-benzyl}-carbamic acid phenyl ester]	520
CS(=O)(=O)N1CCc2c(c(-c3ccc(C(F)(F)F)c(CNC(=O)Oc4ccccc4)c3)nn2CCCN2CCC3(CCNC3=O)CC2)C1 [Example 148, (5-{5-Methanesulfonyl-1-[3-(1-oxo-2,8-diaza-spiro[4.5]dec-8-yl)-propyl]-4,5,6,7-tetrahydro-1H-pyrazolo[4,3-c]pyridin-3-yl}-2-trifluoromethyl-benzyl)-carbamic acid phenyl ester]	200
CS(=O)(=O)N1CCc2c(c(-c3ccc(Cl)c(CNC(=O)c4ccc(F)cc4)c3)nn2CC(O)CN2CCC(C(F)(F)F)CC2)C1 (stereo not drawn) [Example 15, N-(2-Chloro-5-{1-[2-hydroxy-3-(4-trifluoromethyl-piperidin-1-yl)-propyl]-5-methanesulfonyl-4,5,6,7-tetrahydro-1H-pyrazolo[4,3-c]pyridin-3-yl}-benzyl)-4-fluoro-benzamide]	70

Same assay, conditions: average of results obtained; substrate Z-Valine-Valine-Arginine-AMC 10 μM, pH 5.0; read-out: CatS IC50

Structure (SMILES)	IC50 [nM]
CC(C)=CC(=O)NCc1cc(-c2nn(CC(O)CN3CCCC(CN(C)C)C3)c3c2CN(S(C)(=O)=O)CC3)ccc1C(F)(F)F (stereo not drawn) [Example 271, 3-Methyl-but-2-enoic acid 5-{1-[3-(3-dimethylaminomethyl-piperidin-1-yl)-2-hydroxy-propyl]-5-methanesulfonyl-4,5,6,7-tetrahydro-1H-pyrazolo[4,3-c]pyridin-3-yl}-2-trifluoromethyl-benzylamide]	580
CC(=O)Nc1cccc(C(=O)NCc2cc(-c3nn(CC(O)CN4CCCC4)c4c3CN(S(C)(=O)=O)CC4)ccc2C(F)(F)F)c1 (stereo not drawn) [Example 59, 3-Acetylamino-N-{5-[1-(2-hydroxy-3-pyrrolidin-1-yl-propyl)-5-methanesulfonyl-4,5,6,7-tetrahydro-1H-pyrazolo[4,3-c]pyridin-3-yl]-2-trifluoromethyl-benzyl}-benzamide]	500
CC(C)(C)OC(=O)NC1CCN(CC(O)Cn2nc(-c3ccc(C(F)(F)F)c(CNC(=O)c4ccc(F)cc4)c3)c3c2CCN(S(C)(=O)=O)C3)CC1 (stereo not drawn) [Example 102]	30
CS(=O)(=O)N1CCc2c(c(-c3ccc(C(F)(F)F)c(CNc4nc5ccccc5o4)c3)nn2CC(O)CN2CCCC2)C1 (stereo not drawn) [Example 68, 1-{3-[3-(Benzooxazol-2-ylaminomethyl)-4-trifluoromethyl-phenyl]-5-methanesulfonyl-4,5,6,7-tetrahydro-pyrazolo[4,3-c]pyridin-1-yl}-3-pyrrolidin-1-yl-propan-2-ol]	750
CC(=O)NC1CCN(CC(O)Cn2nc(-c3ccc(C(F)(F)F)c(CNC(=O)c4ccc(F)cc4)c3)c3c2CCN(S(C)(=O)=O)C3)CC1 (stereo not drawn) [Example 140, N-(5-{1-[3-(4-Acetylamino-piperidin-1-yl)-2-hydroxy-propyl]-5-methanesulfonyl-4,5,6,7-tetrahydro-1H-pyrazolo[4,3-c]pyridin-3-yl}-2-trifluoromethyl-benzyl)-4-fluoro-benzamide]	50
CS(=O)(=O)N1CCc2c(c(-c3ccc(C(F)(F)F)c(CNC(=O)c4ccc(F)cc4Cl)c3)nn2CC(O)CN2CCCC2)C1 (stereo not drawn) [Example 63, 2-Chloro-4-fluoro-N-{5-[1-(2-hydroxy-3-pyrrolidin-1-yl-propyl)-5-methanesulfonyl-4,5,6,7-tetrahydro-1H-pyrazolo[4,3-c]pyridin-3-yl]-2-trifluoromethyl-benzyl}-benzamide]	250
CS(=O)(=O)N1CCc2c(c(-c3ccc(C(F)(F)F)c(CNC(=O)c4ccc(F)cc4)c3)nn2CC(O)CN2CCC3(CCNC3=O)CC2)C1 (stereo not drawn) [Example 16, 4-Fluoro-N-(5-{1-[2-hydroxy-3-(1-oxo-2,8-diaza-spiro[4.5]dec-8-yl)-propyl]-5-methanesulfonyl-4,5,6,7-tetrahydro-1H-pyrazolo[4,3-c]pyridin-3-yl}-2-trifluoromethyl-benzyl)-benzamide]	60
CC(C)=CC(=O)NCc1cc(-c2nn(CC(O)CN3CCC(C)(C)CC3)c3c2CN(S(C)(=O)=O)CC3)ccc1C(F)(F)F (stereo not drawn) [Example 28, 3-Methyl-but-2-enoic acid 5-{1-[3-(4,4-dimethyl-piperidin-1-yl)-2-hydroxy-propyl]-5-methanesulfonyl-4,5,6,7-tetrahydro-1H-pyrazolo[4,3-c]pyridin-3-yl}-2-trifluoromethyl-benzylamide]	60
CS(=O)(=O)N1CCc2c(c(-c3ccc(C(F)(F)F)c(CNC(=O)c4ccc(O)cc4)c3)nn2CC(O)CN2CCC3(CCNC3=O)CC2)C1 (stereo not drawn) [Example 141, 4-Hydroxy-N-(5-{1-[2-hydroxy-3-(1-oxo-2,8-diaza-spiro[4.5]dec-8-yl)-propyl]-5-methanesulfonyl-4,5,6,7-tetrahydro-1H-pyrazolo[4,3-c]pyridin-3-yl}-2-trifluoromethyl-benzyl)-benzamide]	50
CS(=O)(=O)N1CCc2c(c(-c3ccc(Cl)c(CC(=O)Nc4ccc(F)cc4)c3)nn2CCCN2CCOCC2)C1 [Example 290, 2-{2-Chloro-5-[5-methanesulfonyl-1-(3-morpholin-4-yl-propyl)-4,5,6,7-tetrahydro-1H-pyrazolo[4,3-c]pyridin-3-yl]-phenyl}-N-(4-fluoro-phenyl)-acetamide]	1850
CS(=O)(=O)N1CCc2c(c(-c3ccc(C(F)(F)F)c(CNC(=O)c4ccc(F)cc4)c3)nn2CC(O)CN2CC[C@H](CO)C2)C1 (stereo partly drawn) [Example 94, (S)-4-Fluoro-N-(5-{1-[2-hydroxy-3-(3-hydroxymethyl-pyrrolidin-1-yl)-propyl]-5-methanesulfonyl-4,5,6,7-tetrahydro-1H-pyrazolo[4,3-c]pyridin-3-yl}-2-trifluoromethyl-benzyl)-benzamide]	180
CS(=O)(=O)N1CCc2c(c(-c3ccc(C(F)(F)F)c(CNC(=O)c4ccc(F)cc4)c3)nn2CCCN2CCC3(CCNC3=O)CC2)C1 [Example 41, 4-Fluoro-N-(5-{5-methanesulfonyl-1-[3-(1-oxo-2,8-diaza-spiro[4.5]dec-8-yl)-propyl]-4,5,6,7-tetrahydro-1H-pyrazolo[4,3-c]pyridin-3-yl}-2-trifluoromethyl-benzyl)-benzamide]	40
CS(=O)(=O)N1CCc2c(c(-c3ccc(C(F)(F)F)c(CNC(=O)c4ccc(N)cc4)c3)nn2CC(O)CN2CCCC2)C1 (stereo not drawn) [Example 165, 4-Amino-N-{5-[1-(2-hydroxy-3-pyrrolidin-1-yl-propyl)-5-methanesulfonyl-4,5,6,7-tetrahydro-1H-pyrazolo[4,3-c]pyridin-3-yl]-2-trifluoromethyl-benzyl}-benzamide]	440
CS(=O)(=O)N1CCc2c(c(-c3ccc(Cl)c(COC(=O)c4ccccc4)c3)nn2CCCN2CCCC2)C1 [Example 70, Benzoic acid 2-chloro-5-[5-methanesulfonyl-1-(3-pyrrolidin-1-yl-propyl)-4,5,6,7-tetrahydro-1H-pyrazolo[4,3-c]pyridin-3-yl]-benzyl ester]	1850
CS(=O)(=O)N1CCc2c(c(-c3ccc(C(F)(F)F)c(CNC(=O)c4ccc(F)cc4)c3)nn2CC(O)CN2CCOCC2)C1 (stereo not drawn) [Example 23, 4-Fluoro-N-{5-[1-(2-hydroxy-3-morpholin-4-yl-propyl)-5-methanesulfonyl-4,5,6,7-tetrahydro-1H-pyrazolo[4,3-c]pyridin-3-yl]-2-trifluoromethyl-benzyl}-benzamide]	150
CS(=O)(=O)N1CCc2c(c(-c3ccc(Cl)c(CCC(=O)Nc4ccccc4)c3)nn2CCCN2CCOCC2)C1 [Example 292, 3-{2-Chloro-5-[5-methanesulfonyl-1-(3-morpholin-4-yl-propyl)-4,5,6,7-tetrahydro-1H-pyrazolo[4,3-c]pyridin-3-yl]-phenyl}-N-phenyl-propionamide]	2550
CS(=O)(=O)N1CCc2c(c(-c3ccc(C(F)(F)F)c(CNC(=O)c4cc5ccccc5s4)c3)nn2CC(O)CN2CCC3(CCNC3=O)CC2)C1 (stereo not drawn) [Example 157, Benzo[b]thiophene-2-carboxylic acid 5-{1-[2-hydroxy-3-(1-oxo-2,8-diaza-spiro[4.5]dec-8-yl)-propyl]-5-methanesulfonyl-4,5,6,7-tetrahydro-1H-pyrazolo[4,3-c]pyridin-3-yl}-2-trifluoromethyl-benzylamide]	270
CC(C)CC(=O)NCc1cc(-c2nn(CC(O)CN3CCC(NC(=O)C(F)(F)F)C3)c3c2CN(S(C)(=O)=O)CC3)ccc1C(F)(F)F (stereo not drawn) [Example 280, N-[5-(1-{2-Hydroxy-3-[3-(2,2,2-trifluoro-acetylamino)-pyrrolidin-1-yl]-propyl}-5-methanesulfonyl-4,5,6,7-tetrahydro-1H-pyrazolo[4,3-c]pyridin-3-yl)-2-trifluoromethyl-benzyl]-3-methyl-butyramide]	360
CS(=O)(=O)N1CCc2c(c(-c3ccc(Cl)c(CCC(=O)Nc4ccc(F)cc4)c3)nn2CCCN2CCOCC2)C1 [Example 293, 3-{2-Chloro-5-[5-methanesulfonyl-1-(3-morpholin-4-yl-propyl)-4,5,6,7-tetrahydro-1H-pyrazolo[4,3-c]pyridin-3-yl]-phenyl}-N-(4-fluoro-phenyl)-propionamide]	3000

From patent publication US20090118274A1, “MONOCYCLIC AMINOPROPYL TETRAHYDRO-PYRAZOLO-PYRIDINE MODULATORS OF CATHEPSIN S” (priority 2007, published 2009)
